In patent US4670434A, “(2-oxo-3-methylene-1,2,3,5-tetrahydroimidazo[2,1-b]q uinazolinyl)oxyalkylamides useful as cyclic AMP phosphodiesterase inhibitors” (Syntex (U.S.A.) Inc., priority 1985, dated 1987):
pIC50: −log10 of the molar value.

How the values were obtained:
[1] = tested on: Human platelet cyclic AMP phosphodiesterase; test: Cyclic AMP phosphodiesterase assay; assay type: biochemical; conditions: 1 μM cyclic AMP as substrate; human platelet enzyme; read-out: IC50 value, inhibition of cyclic AMP phosphodiesterase
Procedure: (§1) Cyclic AMP phosphodiesterase activity and inhibition of platelet aggregation were determined as follows.
Cyclic AMP phosphodiesterase assay
The inhibition of cyclic AMP phosphodiesterase activity by the subject compounds was assayed by the method of Filburn and Karn, Analyt. Biochem., 52: 505-516 (1973), using 1 μM cyclic AMP as the substrate. Human platelet cyclic AMP phosphodiesterase was obtained from human donors. Platelets were isolated and washed by centrifugation, the membranes ruptured by a sequential freeze-thaw procedure and hypotonic lysis and the soluble enzyme isolated by high speed centrifugation. The enzyme was stored in aliquots at -20° C.

human platelets = test: Platelet aggregation (turbidimetric); assay type: cell-based; conditions: platelet rich plasma
Procedure: as §1
Blood was collected into evacuated tubes containing sodium citrate (30 mM). Platelet rich plasma was collected after centrifugation. Aggregation was followed by a turbidimetric procedure described by G. V. R. Born, J. Physiol., Lond., 162: 67P-68P (1962).

Mongrel dogs = test: Inotropic activity in anesthetized mongrel dogs; assay type: in vivo; conditions: intravenous, anesthetized dog
Procedure: The inotropic activity of these compounds was determined as follows: Mongrel dogs were anesthetized i.v. with 35 mg/Kg sodium pentobarbital and supplemented as needed. Blood pressure was measured with a Statham pressure transducer via a cannula inserted from a femoral artery into the abdominal aorta. Heart rate was recorded by a cardiotachometer from a lead II electrocardiogram. Right ventricular contractile force was recorded from a Walton-Brodie strain gauge sutured to the right ventricle following a midsternal thoracotomy. A Harvard respirator was used to ventilate the dogs with room air through an endotracheal tube. The dog was bilaterally vagotomized. Following a midline laparotomy, a cannula was sutured into the duodenum for intraduodenal administration of test compound. A femoral vein was cannulated for administration of isoproterenol. All data were recorded on a Beckman R611 Dynograph.
To assess the responsiveness of each dog, isoproterenol was given i.v. at half-log interval doses from 0.007 to 2.1 or 6.67 μg/Kg. The test compound, N-cyclohexyl-N-methyl-4-(2-oxo-3-methylene-1,2,3,5-tetrahydroimidazo-[2,1- b]quinazolin-7-yl)oxybutanamide, was then administered intravenously at dose levels from 0.1 to 1.0 mg/Kg.

**Q.** With `C=c1c(=O)[nH]c2n1Cc1cc(OCCCC(=O)N(C)C3CCCCC3)ccc1N=2` [N-cyclohexyl-N-methyl-4-(2-oxo-3-methylene-1,2,3,5-tetrahydroimidazo[2,1-b]quinazolin-7-yl)oxybutanamide] as the compound, how does the pIC50 [1] read?
**A.** 8.57

**Q.** And the pIC50 (human platelets)?
**A.** 6.82

**Q.** What about the “Peak Effects as % of Max. Isoproterenol, Blood Pressure” value (“Peak Effects as % … Blood Pressure” for short) (Mongrel dogs; 0.1 mg/kg) of the same compound?
**A.** 42 % of Max. Isoproterenol

**Q.** What about the “Peak Effects as % of Max. Isoproterenol, Heart Rate” value (“Peak Effects as % … Heart Rate” for short) (Mongrel dogs; 0.1 mg/kg) of the same compound?
**A.** 18 % of Max. Isoproterenol

**Q.** What about the “Peak Effects as % of Max. Isoproterenol, Rt. Ventricular Contractile Force” value (Mongrel dogs; 0.1 mg/kg) of the same compound?
**A.** 24 % of Max. Isoproterenol

**Q.** What about the “Peak Effects as % … Blood Pressure” value (Mongrel dogs; 0.316 mg/kg) of the same compound?
**A.** 58 % of Max. Isoproterenol

**Q.** What about the “Peak Effects as % … Heart Rate” value (Mongrel dogs; 0.316 mg/kg) of the same compound?
**A.** 28 % of Max. Isoproterenol

**Q.** And the “Peak Effects as % of Max. Isoproterenol, Rt. Ventricular Contractile Force” value (Mongrel dogs; 0.316 mg/kg)?
**A.** 52 % of Max. Isoproterenol

**Q.** What about the “Peak Effects as % … Blood Pressure” value (Mongrel dogs; 1.0 mg/kg) of the same compound?
**A.** 65 % of Max. Isoproterenol

**Q.** What about the “Peak Effects as % … Heart Rate” value (Mongrel dogs; 1.0 mg/kg) of the same compound?
**A.** 34 % of Max. Isoproterenol

**Q.** And the “Peak Effects as % of Max. Isoproterenol, Rt. Ventricular Contractile Force” value (Mongrel dogs; 1.0 mg/kg)?
**A.** 62 % of Max. Isoproterenol
